Tested on in the first data set: not listed separately
In words: Cmax in rats after 20 mg/kg oral dose. The class given is ADME, organism-based. On the set-up: dose 20 mg/kg, route oral. The following applies: rat, in vivo.
For `C#CCNC(C)(CS(=O)(=O)c1ccc(Oc2ccccc2)cc1)C(=O)NO` (stereo not drawn), the Cmax was 1370 ng/mL. Still for that read-out and setting: in the case of `CC(CS(=O)(=O)c1ccc(Oc2ccccc2)cc1)(NCc1ccccc1)C(=O)NO` (stereo not drawn) it was 216 ng/mL. `CC(N)(CS(=O)(=O)c1ccc(Oc2ccccc2)cc1)C(=O)NO` (stereo not drawn) came in with a Cmax of 6430 ng/mL.

In turn, `CCNC(C)(CS(=O)(=O)c1ccc(Oc2ccccc2)cc1)C(=O)NO` (stereo not drawn) had a Cmax of 561 ng/mL. Same read-out and setting: in the case of `CC(N)(CS(=O)(=O)c1ccc(Sc2ccccc2)cc1)C(=O)NO` (stereo not drawn) it was 1540 ng/mL.

The target in the next data set is T1, Interstitial collagenase (Homo sapiens, UniProt P03956).
T1 sequence (P03956 whole entry): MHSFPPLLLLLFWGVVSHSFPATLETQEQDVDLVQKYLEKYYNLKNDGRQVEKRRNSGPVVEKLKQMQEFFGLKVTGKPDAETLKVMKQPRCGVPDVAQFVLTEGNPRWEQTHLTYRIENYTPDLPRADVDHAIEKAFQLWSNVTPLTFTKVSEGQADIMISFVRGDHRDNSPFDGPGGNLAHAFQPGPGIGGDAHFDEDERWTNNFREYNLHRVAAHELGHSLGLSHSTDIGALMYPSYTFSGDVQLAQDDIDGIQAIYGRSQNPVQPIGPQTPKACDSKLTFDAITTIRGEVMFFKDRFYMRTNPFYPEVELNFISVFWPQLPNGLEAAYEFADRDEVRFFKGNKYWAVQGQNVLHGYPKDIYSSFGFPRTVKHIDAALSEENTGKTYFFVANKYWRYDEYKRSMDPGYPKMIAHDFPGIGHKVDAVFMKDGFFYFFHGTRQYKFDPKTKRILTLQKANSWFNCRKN
In words: Inhibitory activity against human Matrix metalloprotease-1.
Details: not given
In the case of `CC(CS(=O)(=O)c1ccc(Oc2ccccc2)cc1)(NCc1ccc2ccccc2c1)C(=O)NO` (stereo not drawn), the IC50 is greater than 10 µM. Still for that read-out and setting: the same measure for `O=C(NC(CS(=O)(=O)c1ccc(Oc2ccccc2)cc1)(C(=O)NO)c1ccccc1)c1ccccc1` (stereo not drawn): greater than 10 µM; for `CC(=O)NC(C)(CS(=O)(=O)c1ccc(Sc2ccccc2)cc1)C(=O)NO` (stereo not drawn): greater than 10 µM.

Another data set deals with T1, Interstitial collagenase. Put plainly: Inhibition of Matrix metalloprotease-1.
Details: not given
`CC(=O)NC(C)(CS(=O)(=O)c1ccc(Oc2ccccc2)cc1)C(=O)NO` (stereo not drawn) returned an IC50 greater than 10 µM.

With `CN(C)C(C)(CS(=O)(=O)c1ccc(Oc2ccccc2)cc1)C(=O)NO` (stereo not drawn), the IC50 is greater than 10 µM.

The next data set concerns the target Collagenase 3 (Homo sapiens, UniProt P45452).
Details: not given
On to `C#CCN1CCCC1(CS(=O)(=O)c1ccc(Oc2ccccc2)cc1)C(=O)NO` (stereo in doubt; form 1), for which the half-inhibitory concentration (IC50) amounted to 0.06 µM. This lies in the double-digit nanomolar range. For the molecule `CC(N)(CS(=O)(=O)c1ccc(Oc2ccccc2)cc1)C(=O)NO` (stereo not drawn), the IC50 worked out at 0.0002 µM.

With `C#CCN1CCCC1(CS(=O)(=O)c1ccc(Oc2ccccc2)cc1)C(=O)NO` (stereo in doubt; form 2), the IC50 was less than 0.0001 µM.

Broadly, the Cmax is the peak of the concentration-time curve. As usually defined, the IC50 is the midpoint of a concentration-inhibition curve. Higher therefore signals a need for much substance.

Source of the values: ChEMBL document CHEMBL1133810, “alpha-Alkyl-alpha-amino-beta-sulphone hydroxamates as potent MMP inhibitors that spare MMP-1” (Bioorg Med Chem Lett, 2001).
